Activity calls are given as the source filed them. The rule behind the calls is not given here.
Assays:
[1] = system: MCF7; experiment: Antagonistic cytotoxicity against human MCF7 cells measured after 2 days in presence of 5 uM 2(((24(2,4-dichlorobenzyl)oxy)naphthalen-1-yl)methyl)amino)ethan-1-ol by SRB assay; assay type: functional, cell-based; conditions: MCF7, 48 h
[2] = system: MCF7; experiment: Antagonistic cytotoxicity against human MCF7 cells measured after 2 days in presence of 5 uM KU55933 by SRB assay; assay type: functional, cell-based; conditions: MCF7, 48 h
[3] = system: MCF7; experiment: Antagonistic cytotoxicity against human MCF7 cells measured after 2 days in presence of 5 uM KU60019 by SRB assay; assay type: functional, cell-based; conditions: MCF7, 48 h
[4] = system: MCF7; experiment: Antagonistic cytotoxicity against human MCF7 cells measured after 2 days in presence of 50 nM AZD0156 by SRB assay; assay type: functional, cell-based; conditions: MCF7, 48 h
[5] = system: MCF7; experiment: Antagonistic cytotoxicity against human MCF7 cells assessed as combination index measured after 2 days in presence of 5 uM 2(((24(2,4-dichlorobenzyl)oxy)naphthalen-1-yl)methyl)amino)ethan-1-ol by SRB assay; assay type: functional; conditions: time 2 day
[6] = system: MCF7; experiment: Antagonistic cytotoxicity against human MCF7 cells assessed as combination index measured after 2 days in presence of 5 uM KU55933 by SRB assay; assay type: functional; conditions: time 2 day
[7] = system: MCF7; experiment: Antagonistic cytotoxicity against human MCF7 cells assessed as combination index measured after 2 days in presence of 5 uM KU60019 by SRB assay; assay type: functional; conditions: time 2 day
[8] = system: MCF7; experiment: Antagonistic cytotoxicity against human MCF7 cells assessed as combination index measured after 2 days in presence of 50 nM AZD0156 by SRB assay; assay type: functional; conditions: time 2 day
[9] = system: SW480; experiment: Antagonistic cytotoxicity against human SW480 cells measured after 3 days in presence of 5 uM 2(((24(2,4-dichlorobenzyl)oxy)naphthalen-1-yl)methyl)amino)ethan-1-ol by SRB assay; assay type: functional, cell-based; conditions: SW480, 72 h
[10] = system: SW480; experiment: Antagonistic cytotoxicity against human SW480 cells measured after 3 days in presence of 5 uM KU55933 by SRB assay; assay type: functional, cell-based; conditions: SW480, 72 h
[11] = system: SW480; experiment: Antagonistic cytotoxicity against human SW480 cells measured after 3 days in presence of 5 uM KU60019 by SRB assay; assay type: functional, cell-based; conditions: SW480, 72 h
[12] = system: SW480; experiment: Antagonistic cytotoxicity against human SW480 cells assessed as combination index measured after 3 days in presence of 5 uM 2(((24(2,4-dichlorobenzyl)oxy)naphthalen-1-yl)methyl)amino)ethan-1-ol by SRB assay; assay type: functional; conditions: time 3 day
[13] = system: SW480; experiment: Antagonistic cytotoxicity against human SW480 cells assessed as combination index measured after 3 days in presence of 5 uM KU55933 by SRB assay; assay type: functional; conditions: time 3 day
[14] = system: SW480; experiment: Antagonistic cytotoxicity against human SW480 cells assessed as combination index measured after 3 days in presence of 5 uM KU60019 by SRB assay; assay type: functional; conditions: time 3 day
[15] = system: SW480; experiment: Antagonistic cytotoxicity against human SW480 cells assessed as combination index measured after 3 days in presence of 50 nM AZD0156 by SRB assay; assay type: functional; conditions: time 3 day
[16] = system: MCF7; experiment: Cytotoxicity against human MCF7 cells measured after 6 days in presence of 5 uM 2(((24(2,4-dichlorobenzyl)oxy)naphthalen-1-yl)methyl)amino)ethan-1-ol by SRB assay; assay type: functional, cell-based; conditions: MCF7, 144 h
[17] = system: MCF7; experiment: Synergistic cytotoxicity against human MCF7 cells measured after 6 days in presence of 5 uM KU60019 by SRB assay; assay type: functional, cell-based; conditions: MCF7, 144 h
[18] = system: MCF7; experiment: Synergistic cytotoxicity against human MCF7 cells measured after 6 days in presence of 50 nM AZD0156 by SRB assay; assay type: functional, cell-based; conditions: MCF7, 144 h
[19] = system: MCF7; experiment: Synergistic cytotoxicity against human MCF7 cells assessed as combination index measured after 6 days in presence of 50 nM AZD0156 by SRB assay; assay type: functional; conditions: time 6 day
[20] = system: SW480; experiment: Cytotoxicity against human SW480 cells measured after 9 days in presence of 5 uM 2(((24(2,4-dichlorobenzyl)oxy)naphthalen-1-yl)methyl)amino)ethan-1-ol by SRB assay; assay type: functional, cell-based; conditions: SW480, 216 h
[21] = system: SW480; experiment: Additive cytotoxicity against human SW480 cells measured after 9 days in presence of 5 uM KU55933 by SRB assay; assay type: functional, cell-based; conditions: SW480, 216 h
[22] = system: SW480; experiment: Synergistic cytotoxicity against human SW480 cells measured after 9 days in presence of 5 uM KU60019 by SRB assay; assay type: functional, cell-based; conditions: SW480, 216 h
[23] = system: SW480; experiment: Synergistic cytotoxicity against human SW480 cells measured after 9 days in presence of 50 nM AZD0156 by SRB assay; assay type: functional, cell-based; conditions: SW480, 216 h
[24] = system: SW480; experiment: Synergistic cytotoxicity against human SW480 cells assessed as combination index measured after 9 days in presence of 5 uM KU60019 by SRB assay; assay type: functional; conditions: time 9 day
[25] = system: SW480; experiment: Synergistic cytotoxicity against human SW480 cells assessed as combination index measured after 9 days in presence of 50 nM AZD0156 by SRB assay; assay type: functional; conditions: time 9 day
[26] = system: MCF7; experiment: Synergistic cytotoxicity against human MCF7 cells in presence of 10 uM 3-Chloro-4-methoxy-N-((4-(oxazolo[4,5-b]pyridin-2-yl)phenyl)carbamothioyl)benzamide measured after 2 days by SRB assay; assay type: functional, cell-based; conditions: MCF7, 48 h
[27] = system: MCF7; experiment: Synergistic cytotoxicity against human MCF7 cells assessed as combination index in presence of 10 uM 3-Chloro-4-methoxy-N-((4-(oxazolo[4,5-b]pyridin-2-yl)phenyl)carbamothioyl)benzamide measured after 2 days by SRB assay; assay type: functional; conditions: time 2 day
[28] = system: MCF7; experiment: Antagonistic cytotoxicity against human MCF7 cells in presence of 10 uM 3-Chloro-4-methoxy-N-((4-(oxazolo[4,5-b]pyridin-2-yl)phenyl)carbamothioyl)benzamide measured after 6 days by SRB assay; assay type: functional, cell-based; conditions: MCF7, 144 h
[29] = system: MCF7; experiment: Antagonistic cytotoxicity against human MCF7 cells assessed as combination index in presence of 10 uM 3-Chloro-4-methoxy-N-((4-(oxazolo[4,5-b]pyridin-2-yl)phenyl)carbamothioyl)benzamide measured after 6 days by SRB assay; assay type: functional; conditions: time 6 day
[30] = system: SW480; experiment: Antagonistic cytotoxicity against human SW480 cells measured after 9 days in presence of 3-Chloro-4-methoxy-N-((4-(oxazolo[4,5-b]pyridin-2-yl)phenyl)carbamothioyl)benzamide by SRB assay; assay type: functional, cell-based; conditions: time 9.0 day
[31] = system: NCI-H1299; experiment: Cytotoxicity against human NCI-H1299 cells measured in presence of 5 uM 2(((2-(2,4-dichlorobenzyl)oxy)naphthalen-1-yl)methyl)amino)ethan-1-ol after 2 days by SRB assay; assay type: functional, cell-based; conditions: NCI-H1299, 48 h
[32] = system: NCI-H1299; experiment: Additive cytotoxicity against human NCI-H1299 cells measured in presence of 5 uM KU55933 after 2 days by SRB assay; assay type: functional, cell-based; conditions: NCI-H1299, 48 h
[33] = system: NCI-H1299; experiment: Additive cytotoxicity against human NCI-H1299 cells assessed as combination index measured in presence of 5 uM KU55933 after 2 days by SRB assay; assay type: functional; conditions: time 2 day
[34] = system: NCI-H1299; experiment: Additive cytotoxicity against human NCI-H1299 cells measured in presence of 5 uM KU55933 after 6 days by SRB assay; assay type: functional, cell-based; conditions: NCI-H1299, 144 h
[35] = system: NCI-H1299; experiment: Synergistic cytotoxicity against human NCI-H1299 cells measured in presence of 5 uM KU60019 after 6 days by SRB assay; assay type: functional, cell-based; conditions: NCI-H1299, 144 h
[36] = system: NCI-H1299; experiment: Additive cytotoxicity against human NCI-H1299 cells assessed as combination index measured in presence of 5 uM KU55933 after 6 days by SRB assay; assay type: functional; conditions: time 6 day
[37] = system: NCI-H1299; experiment: Synergistic cytotoxicity against human NCI-H1299 cells assessed as combination index measured in presence of 5 uM KU60019 after 6 days by SRB assay; assay type: functional; conditions: time 6 day
[38] = system: NCI-H1299; experiment: Synergistic cytotoxicity against human NCI-H1299 cells assessed as combination index measured in presence of 50 nM AZD0156 after 6 days by SRB assay; assay type: functional; conditions: time 6 day

SMILES	IC50 [1] [µM]	IC50 [2] [µM]	IC50 [3] [µM]	IC50 [4] [µM]	CI [5]	CI [6]	CI [7]	CI [8]	IC50 [9] [µM]	IC50 [10] [µM]	IC50 [11] [µM]	CI [12]	CI [13]	CI [14]	CI [15]	IC50 [16] [µM]	IC50 [17] [µM]	IC50 [18] [µM]	CI [19]	IC50 [20] [µM]	other results
CCc1c2c(nc3ccc(OC(=O)N4CCC(N5CCCCC5)CC4)cc13)-c1cc3c(c(=O)n1C2)COC(=O)[C@]3(O)CC [IRINOTECAN]	42.4	38.1	38.1	39.2	2.1	1.4	1.6	1.3	12.4	7.2	15.4	3.2	1.6	3.4	2.4	1.68	1.98	0.16	0.97	0.07	IC50 [21]: 0.6 µM; IC50 [22]: < 0.12 µM; IC50 [23]: < 0.12 µM; CI [24]: 0.25; CI [25]: 0.22; IC50 [26]: 26.3 µM; CI [27]: 0.78; IC50 [28]: 1.88 µM; CI [29]: 1.16; Activity [30]: Active; IC50 [31]: 11.1 µM; IC50 [32]: 13.1 µM; CI [33]: 1.1; IC50 [34]: 1.67 µM; IC50 [35]: 0.27 µM; CI [36]: 1.1; CI [37]: 0.66; CI [38]: 0.25
COc1cc([C@@H]2c3cc4c(cc3[C@@H](O[C@@H]3O[C@@H]5CO[C@@H](C)O[C@H]5[C@H](O)[C@H]3O)[C@H]3COC(=O)[C@H]23)OCO4)cc(OC)c1O [ETOPOSIDE]	46.2	58.8	87.4	62.7	2.8	2.7	4.2	2.8	3.6	3.5	3.8	2	1.4	1.7	1.3	0.66	0.06	0.11	0.19	0.07	IC50 [21]: 0.08 µM; IC50 [22]: < 0.01 µM; IC50 [23]: < 0.01 µM; CI [24]: 0.22; CI [25]: 0.17; IC50 [26]: 23.6 µM; CI [27]: 0.84; IC50 [28]: 0.65 µM; CI [29]: 1.16; Activity [30]: Active; IC50 [31]: 11.1 µM; IC50 [32]: 9.37 µM; CI [33]: 0.98; IC50 [34]: 0.46 µM; IC50 [35]: 0.23 µM; CI [36]: 0.91; CI [37]: 0.77; CI [38]: 0.39

Source: ChEMBL document CHEMBL5154770, “Discovery of novel ataxia telangiectasia mutated (ATM) kinase modulators: Computational simulation, biological evaluation and cancer combinational chemotherapy study” (Eur J Med Chem, 2022)
